According to US10829452B2, “Histone methyltransferase inhibitors” (GLOBAL BLOOD THERAPEUTICS, INC., priority 2016, dated 2020):
Structures can show the parent of a compound that is named as a salt.

What follows are molecules tested against T1, G9a (Homo sapiens, UniProt Q96KQ7) (assay: G9a AlphaLISA enzymatic activity assay). Conditions: 0.15 nM G9a, 15 uM S-adenosyl-methionine, 100 nM biotinylated histone 3 peptide (1-21), 1 hour at room temperature; read-out: G9a in (uM) (IC50, concentration that produced 50% inhibition).
T1 sequence (Q96KQ7 1-1210): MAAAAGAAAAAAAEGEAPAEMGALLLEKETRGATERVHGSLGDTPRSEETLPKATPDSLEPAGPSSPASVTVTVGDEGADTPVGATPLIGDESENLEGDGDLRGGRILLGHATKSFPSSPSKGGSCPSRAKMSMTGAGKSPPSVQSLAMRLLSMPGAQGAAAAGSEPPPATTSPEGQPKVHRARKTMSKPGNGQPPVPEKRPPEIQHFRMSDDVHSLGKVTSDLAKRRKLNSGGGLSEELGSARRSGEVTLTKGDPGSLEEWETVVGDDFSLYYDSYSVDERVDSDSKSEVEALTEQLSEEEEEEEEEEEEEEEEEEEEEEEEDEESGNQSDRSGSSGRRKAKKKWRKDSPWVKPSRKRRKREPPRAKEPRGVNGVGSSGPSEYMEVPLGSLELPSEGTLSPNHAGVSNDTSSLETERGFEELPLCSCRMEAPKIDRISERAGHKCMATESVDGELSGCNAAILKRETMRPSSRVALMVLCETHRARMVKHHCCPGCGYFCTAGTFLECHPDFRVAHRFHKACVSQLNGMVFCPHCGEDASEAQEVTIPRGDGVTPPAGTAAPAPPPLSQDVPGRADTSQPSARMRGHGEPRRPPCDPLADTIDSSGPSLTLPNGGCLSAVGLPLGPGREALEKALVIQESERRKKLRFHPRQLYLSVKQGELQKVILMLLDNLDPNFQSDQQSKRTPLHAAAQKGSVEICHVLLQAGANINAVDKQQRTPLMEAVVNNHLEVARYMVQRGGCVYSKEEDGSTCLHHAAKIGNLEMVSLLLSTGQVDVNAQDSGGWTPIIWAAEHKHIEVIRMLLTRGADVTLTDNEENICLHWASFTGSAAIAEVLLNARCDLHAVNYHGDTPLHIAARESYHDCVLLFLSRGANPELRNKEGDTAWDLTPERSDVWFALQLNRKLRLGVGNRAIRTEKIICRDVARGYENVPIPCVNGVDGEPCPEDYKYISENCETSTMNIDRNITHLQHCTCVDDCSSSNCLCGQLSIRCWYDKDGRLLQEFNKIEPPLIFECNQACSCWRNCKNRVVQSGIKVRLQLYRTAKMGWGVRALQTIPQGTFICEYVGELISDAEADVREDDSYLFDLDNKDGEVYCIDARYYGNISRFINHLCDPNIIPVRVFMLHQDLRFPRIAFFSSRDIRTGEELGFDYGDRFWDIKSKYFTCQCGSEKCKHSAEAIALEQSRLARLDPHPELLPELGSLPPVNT
Assay type: biochemical
Method in brief: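 Human G9a (0.15 nM) methylated 100 nM biotinylated histone H3(1-21) peptide with 15 uM SAM in Tris-HCl pH9 buffer with NaCl, Tween-20 and DTT, 1 h at room temperature. H3K9me2 was detected by AlphaLISA acceptor/streptavidin donor beads (20 ug/mL each); IC50 from percent inhibition across compound dilutions.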

| SMILES | IC50 |
| --- | --- |
| COc1cc2c3c(c(C(C)C)nc2cc1OCCCN1CCCC1)CCC(C)(C)N3 [Example 77, 1-(3-{[9-methoxy-2,2-dimethyl-5-(propan-2-yl)-1H,2H,3H,4H-benzo[h]1,6-naphthyridin-8-yl]oxy}propyl)pyrrolidine formate] | 0.007 µM |
| COc1cc2c3c(c(C4CCOC4)nc2cc1OCCCN1CCCC1)CCC3 (stereo not shown) [Example 98, 1-(3-{[8-methoxy-4-(oxolan-3-yl)-1H,2H,3H-cyclopenta[c]quinolin-7-yl]oxy}propyl)pyrrolidine formate] | > 10 µM |
| COc1cc2c3c(cnc2cc1OCCCN1CCCC1)CCC(C)(C)N3 [Example 75, 1-[3-({9-methoxy-2,2-dimethyl-1H,2H,3H,4H-benzo[h]1,6-naphthyridin-8-yl}oxy)propyl]pyrrolidine formate] | 0.014 µM |
| COc1cc2c3c(c(NC(C)C)nc2cc1OCCCN1CCC(C)(C)C1)CCC3 [Example 86, 7-[3-(3,3-dimethylpyrrolidin-1-yl)propoxy]-8-methoxy-N-(propan-2-yl)-1H,2H,3H-cyclopenta[c]quinolin-4-amine formate] | > 10 µM |
| COc1cc2c3c(c(NC4CC4)nc2cc1OCCCN1CCCC1)COCC3 [Example 55, N-cyclopropyl-9-methoxy-8-[3-(pyrrolidin-1-yl)propoxy]-1H,2H,4H-pyrano[3,4-c]-quinolin-5-amine formate] | 0.32 µM |
| COc1cc2c3c(c(NC4CCC(O)C4)nc2cc1OCCCN1CCCC1)CCC3 (stereo not shown) [Example 126, 3-({8-methoxy-7-[3-(pyrrolidin-1-yl)propoxy]-1H,2H,3H-cyclopenta[c]quinolin-4-yl}amino)cyclopentan-1-ol formate] | 0.15 µM |
| COc1cc2c3c(c(NC(C)C)nc2cc1OCCCN1CCCC1)CC(C)(C)C3 [Example 54, 8-methoxy-2,2-dimethyl-N-(propan-2-yl)-7-[3-(pyrrolidin-1-yl)propoxy]-1H,2H,3H-cyclopenta[c]quinolin-4-amine formate] | 0.048 µM |
| CNc1nc2cc(OCCCN3CCCC3)c(OC)cc2c2c1CC(O)CC2 (stereo not shown) [Example 61, 2-methoxy-6-(methylamino)-3-[3-(pyrrolidin-1-yl)propoxy]-7,8,9,10-tetrahydrophenanthridin-8-ol formate] | 0.14 µM |
| COc1cc2c3c(c(C4=CCCC4)nc2cc1OCCCN1CCCC1)CC(C)(C)N3 [Example 83, 1-(3-{[4-(cyclopent-1-en-1-yl)-8-methoxy-2,2-dimethyl-1H,2H,3H-pyrrolo[3,2-c]quinolin-7-yl]oxy}propyl)pyrrolidine] | 0.009 µM |
| COc1cc2c3c(c(C4CCCCC4)nc2cc1OCCCN1CCCC1)CCC3 [Example 110, 1-[3-({4-cyclohexyl-8-methoxy-1H,2H,3H-cyclopenta[c]quinolin-7-yl}oxy)propyl]pyrrolidine trifluoroacetate] | 1.4 µM |
| CCN(CC)CCCOc1cc2nc(NC(C)C)c3c(c2cc1OC)CCC3 [Example 93, 7-[3-(diethylamino)propoxy]-8-methoxy-N-(propan-2-yl)-1H,2H,3H-cyclopenta[c]quinolin-4-amine formate] | 0.39 µM |
| COc1cc2c3c(c(C)nc2cc1OCCCN1CCCC1)CCCCN3 [Example 82, 1-[3-({10-methoxy-6-methyl-1H,2H,3H,4H,5H-azepino[3,2-c]quinolin-9-yl}oxy)propyl]pyrrolidine trifluoroacetate] | 0.006 µM |
| COc1cc2c3c(c(NC4CCN(C)CC4)nc2cc1OCCCN1CCCC1)CCC3 [Example 41, N-{8-methoxy-7-[3-(pyrrolidin-1-yl)propoxy]-1H,2H,3H-cyclopenta[c]quinolin-4-yl}-1-methylpiperidin-4-amine formate] | 0.5 µM |
| COc1cc2c3c(c(N(C)c4ccccc4)nc2cc1OCCCN1CCCC1)CCC3 [Example 69, 8-methoxy-N-methyl-N-phenyl-7-[3-(pyrrolidin-1-yl)propoxy]-1H,2H,3H-cyclopenta[c]quinolin-4-amine trifluoroacetate] | > 10 µM |
| CNc1nc2cc(OCCCN3CCCC3)c(OC)cc2c2c1CC(C)(C)C2 [Example 53, 8-methoxy-N,2,2-trimethyl-7-[3-(pyrrolidin-1-yl)propoxy]-1H,2H,3H-cyclopenta[c]quinolin-4-amine formate] | 0.043 µM |

The next lines start with the values.

| IC50 | SMILES |
| --- | --- |
| 0.19 µM | COc1cc2c3c(c(NCCO)nc2cc1OCCCN1CCCC1)CCCC3 [Example 15, 2-({2-methoxy-3-[3-(pyrrolidin-1-yl)propoxy]-7,8,9,10-tetrahydrophenanthridin-6-yl}amino)ethan-1-ol formate] |
| 0.003 µM | COc1cc2c3c(c(N[C@@H](C)C4CC4)nc2cc1OCCCN1CCCC1)CCC3 [Example 88, N-[(1S)-1-cyclopropylethyl]-8-methoxy-7-[3-(pyrrolidin-1-yl)propoxy]-1H,2H,3H-cyclopenta[c]quinolin-4-amine formate] |
| 0.075 µM | COc1cc2c3c(c(NCCSC)nc2cc1OCCCN1CCCC1)CCC3 [Example 120, 8-methoxy-N-[2-(methylsulfanyl)ethyl]-7-[3-(pyrrolidin-1-yl)propoxy]-1H,2H,3H-cyclopenta[c]quinolin-4-amine formate] |
| 0.12 µM | COc1cc2c3c(c(NC4(C(=O)O)CC4)nc2cc1OCCCN1CCCC1)CCC3 [Example 62, 1-({8-methoxy-7-[3-(pyrrolidin-1-yl)propoxy]-1H,2H,3H-cyclopenta[c]quinolin-4-yl}amino)cyclopropane-1-carboxylic acid formate] |
| 0.021 µM | COc1cc2c3c(c(NC4CC4)nc2cc1OCCCN1CCCC1)CCC3 [Example 105, N-cyclopropyl-8-methoxy-7-[3-(pyrrolidin-1-yl)propoxy]-1H,2H,3H-cyclopenta[c]quinolin-4-amine trifluoroacetate] |
| 0.17 µM | CCNc1nc2cc(OCCCN3CCCC3)c(OC)cc2c2c1COCC2 [Example 58, N-ethyl-9-methoxy-8-[3-(pyrrolidin-1-yl)propoxy]-1H,2H,4H-pyrano[3,4-c]quinolin-5-amine formate] |
| 0.07 µM | COc1cc2c3c(c(NCC(C)(C)C)nc2cc1OCCCN1CCCC1)CCC3 [Example 101, N-(2,2-dimethylpropyl)-8-methoxy-7-[3-(pyrrolidin-1-yl)propoxy]-1H,2H,3H-cyclopenta[c]quinolin-4-amine formate] |
